The text below walks through data of patent publication US6583179B2, “Substituted aminoalkylamide derivatives as antagonists of follicle stimulating hormone” (Ortho-McNeil Pharmaceutical, Inc., priority 1999, dated 2003).

The subject of this test is Rat Granulosa Cell. Nature of the test: Rat granulosa cell FSH-stimulated cAMP production. In kind it is cell-based. The following applies: inhibition of cAMP produced by EC70 dose of FSH (1.4 nM), maximum concentration 50 μM. Here is the method: Insulin, diethylstilbesterol, androstenedione, forskolin and DMSO were purchased from Sigma (St. Louis, Mo.). Fungizone, penicillin/streptomycin, charcoal-treated heat inactivated fetal bovine serum (CT-HI-FBS) and Dulbecco's Modified Eagle Medium:Hams F12 medium containing 15 mM Hepes and L-glutamine (DMEM:F12), were purchased from GIBCO BRL (Grand Island, N.Y.).
Ovine FSH (NIADDK-oFSH-17; FSH potency=20 NIH-FSH-S1 U/mg; LH contamination=0.04 times NIH-LH-S1) was received from Ogden Bioservices Corporation, Rockville, Md. Human FSH (Fertinex), was purchased from Serono Pharmaceutical (Framingham, Mass.). Human chorionic gonadotropin (hCG) was purchased from Sigma (St Louis, Mo.).
Immature intact female rats (Wistar-derived strain; 21-23 days old) were implanted with a single pellet (Innovative Research of America, Sarasota, Fla.) containing 2.5 mg diethylstilbesterol (DES) for 3 days. On the third day, the animals were sacrificed, the ovaries were removed, and the granulosa cells were isolated essentially as described in Haynes-Johnson et al., Biol. Reprod., 61 (1), 147-153, (1999). Granulosa cells were plated at a density of 300,000 cells per ml with 0.2 ml added to each well of 96 well culture dishes (Corning, N.Y.). Cultures were incubated at 37° C. in a humidified incubator (95% air, 5% CO2) overnight (18 hours).
Androstenedione (100,000X) was prepared by dissolving the steroid in 100% ethanol, and was subsequently diluted to a final concentration of 10^−7M containing 0.1% ethanol in assay media. The assay media was serum-free, DES-free, insulin-free media, prepared by adding 5 mL pen-strep,1.5 mL fungizone and 5 μL androstenedione to 493.5 mL DMEM F-12 media.
Test compounds were solubilized in 30% dimethyl sulfoxide (DMSO) at a concentration of 10 mM before diluting to appropriate concentrations in assay medium. The final DMSO concentration in the treated cells and in the control cells was 0.75%.
Test plates containing the granulosa cells were preincubated for 18 hours at 37° C. with 95% air, 5% CO2, 100% humidity. The spent media was removed and 50 μl assay media (DMEM:F12) containing 2 mM IBMX (3-isobutyl-1-methyl-xanthine) was added to the cells. Compounds (25 μl) in the appropriate concentration were added followed 5 minutes later by an EC70 dose of FSH (25 μl; 50 ng/ml; 1.4 nM). After 30 minutes @ 22.5° C. (room temperature) the reaction was terminated by addition of 25 μL 0.5 N hydrochloric acid to each well. The amount of cAMP produced was measured by radioimmunoassay in a FlashPlate (DuPont, Boston, Mass.). To each flash plate 60 μL flash plate buffer was added followed by 40 μL acidified cell sample or cAMP standard, followed with the addition of 100 μl ^125l-cAMP trace. The FlashPlates were sealed, incubated overnight @ room temperature, and counted in a Packard TopCount (Packard Instrument Co., Meriden, Conn.). The cAMP radioimmunoassay results were calculated using DPM conversion and log-logit transformation of % binding (Excel program).
Background: cAMP levels reflect the balance of adenylyl cyclase and phosphodiesterase activity.

For the compound `Cc1ccccc1-c1ccc(S(=O)(=O)N(CC(=O)NCc2ccc(CN)cc2)C[C@@H](C)c2ccccc2)cc1` [Compound 215], a half-maximal effect (EC50) was put at 10 nM.

As for `C[C@@H](CN(CC(=O)NCc1ccc(CN)cc1)S(=O)(=O)c1ccc(-c2ccccc2Cl)cc1)c1ccccc1` [Compound 198], the EC50 (in general, the midpoint of the concentration-response curve) came to 20 nM. Compared with the last compound, the EC50 is about 2-fold higher.
